Reference: patent US20220313629A1, “TRANSIENT POTENTIAL MELASTATIN 8 (TRPM8) ANTAGONISTS AND RELATED METHODS” (MARSHALL UNIVERSITY RESEARCH CORPORATION, priority 2019, published 2022)

What was measured:
human TRPV1 = human TRPV1 (Homo sapiens, UniProt Q8NER1); assay: TRPV1 agonist and antagonist Ca2+ flux assay (FLIPR, Fluo-8) in HEK293 cells stably expressing human TRPV1; type: cell-based; conditions: for hTRPV1 % Activation (n = 3): normalized to Emax of capsaicin (3 μM)
[1] = Stability in liver microsomes; type: in vitro ADME; conditions: mouse liver microsomes, 1 μM, NADPH
Method: Stability in liver microsomes. Male CD-1 mouse liver microsomes (Lot#1710069) were purchased from XenoTech. The reaction mixture, minus NADPH, was prepared as described below. Compound 14 was added into the reaction mixture at a final concentration of 1 μM. The control compound, testosterone, was run simultaneously with Compound 14 in a separate reaction. An aliquot of the reaction mixture (without cofactor) was equilibrated in a shaking water bath at 37° C. for 3 minutes. The reaction was initiated by the addition of the cofactor, and the mixture was incubated in a shaking water bath at 37° C. Aliquots (100 μL) were withdrawn at 0, 10, 20, 30, and 60 minutes. Compound 14 and testosterone samples were immediately combined with 400 μL of ice-cold 50/50 acetonitrile (ACN)/H2O containing 0.1% formic acid and internal standard to terminate the reaction. The samples were then mixed and centrifuged to precipitate proteins. All samples were assayed by LC-MS/MS using electrospray ionization. […] are compared to the PARR at time 0 to determine the percent remaining at each time point. Half-lives and intrinsic clearance were calculated using GraphPad software, fitting to a single-phase exponential decay equation.
In vitro metabolic stability. Compound 14 was evaluated for metabolic stability in mouse liver microsomes by Absorption Systems (Exton, Pa.), by determining the percent remaining at 0, 10, 20, 30 and 60 minutes when incubated with mouse liver microsomes in the presence of NADPH. The half-life (t1/2) and in vitro intrinsic clearance (CLint) of Compound 14 was calculated, in addition to the control (testosterone).

[2] = test system: Oxaliplatin (OXP)-induced cold allodynia in male C57-mice; assay: Oxaliplatin (OXP)-induced cold allodynia, acetone test; type: in vivo, mouse
Method: In Vivo Assays. C57-mice (≈30g) (Harlam, Holland) were used for the study. All experiments were approved by the Institutional Animal and Ethical Committee of the Universidad Miguel Hernandez where experiments were conducted and they were in accordance with the guidelines of the Economic European Community and the Committee for Research and Ethical Issues of the International Association for the Study of Pain. All parts of the study concerning animal care were performed under the control of veterinarians.
Cold allodynia. Oxaliplatin (Tocris) was dissolved in water with gentle warming and was […] injected on days 1, 3 and 5 at a 6 mg/kg dose. The day 7 after administration, experiments were performed. Together with Oxaliplatin injection, saline and a 5% Mannitol solution were intraperitoneally injected to prevent kidney damage and dehydration. The Compound 14 stock was prepared in DMSO (Sigma-Aldrich) and diluted in saline for injections. Compounds at different doses (0.1 to 1 μg) was injected into the plantar surface (25 μL) of the right hind paw of mice. Cold chemical thermal sensitivity was assessed using acetone drop method. Mice were placed in a metal mesh cage and allowed to habituate for approximately 30 minutes in order to acclimatize them. Freshly dispensed acetone drop (10 μL) was applied gently on to the mid plantar surface of the hind paw. Cold chemical sensitive reaction with respect to paw licking was recorded as a positive response (nociceptive pain response). The responses were measured for 20-s with a digital stopwatch. For each measurement, the paw was sampled twice and the mean was calculated. The interval between each application of acetone was approximately 5 minutes.
Cold Allodynia. […] Both acute and chronic OXP-induced cold hypersensitivity have been reproduced in rats and correlated with TRPM8 expression and function. Mizoguchi et al. reported that, in a rodent model, acute cold allodynia after OXP injection was alleviated by the TRPM8 blockers N-(2-aminoethyl)-N-[4-(benzyloxy)-3-methoxybenzyl]-N′-(1S)-1-(phenyl) ethyl] urea and TC-I 2014. According to these findings, the effect of Compound 14 was investigated in an OXP-induced cold allodynia model, using acetone for cooling stimulation. Considering that the cold pain threshold is increased from ≈12° C. to ≈26° C. in OXP-treated patients, acetone stimulation is considered to evoke pain in OXP-treated mice.
The activity of Compound 14 was evaluated 7 days after three intraperitoneal injections of OXP (6 mg/kg) in C57/BL6 mice, when cold allodynia had developed.

[3] = HEK293, read-out: hTRPV1 % Inhibition (n = 3)
[4] = 0.1 and 1 μg single administration, day 7 after OXP

Chain of human TRPV1 (Q8NER1 whole entry): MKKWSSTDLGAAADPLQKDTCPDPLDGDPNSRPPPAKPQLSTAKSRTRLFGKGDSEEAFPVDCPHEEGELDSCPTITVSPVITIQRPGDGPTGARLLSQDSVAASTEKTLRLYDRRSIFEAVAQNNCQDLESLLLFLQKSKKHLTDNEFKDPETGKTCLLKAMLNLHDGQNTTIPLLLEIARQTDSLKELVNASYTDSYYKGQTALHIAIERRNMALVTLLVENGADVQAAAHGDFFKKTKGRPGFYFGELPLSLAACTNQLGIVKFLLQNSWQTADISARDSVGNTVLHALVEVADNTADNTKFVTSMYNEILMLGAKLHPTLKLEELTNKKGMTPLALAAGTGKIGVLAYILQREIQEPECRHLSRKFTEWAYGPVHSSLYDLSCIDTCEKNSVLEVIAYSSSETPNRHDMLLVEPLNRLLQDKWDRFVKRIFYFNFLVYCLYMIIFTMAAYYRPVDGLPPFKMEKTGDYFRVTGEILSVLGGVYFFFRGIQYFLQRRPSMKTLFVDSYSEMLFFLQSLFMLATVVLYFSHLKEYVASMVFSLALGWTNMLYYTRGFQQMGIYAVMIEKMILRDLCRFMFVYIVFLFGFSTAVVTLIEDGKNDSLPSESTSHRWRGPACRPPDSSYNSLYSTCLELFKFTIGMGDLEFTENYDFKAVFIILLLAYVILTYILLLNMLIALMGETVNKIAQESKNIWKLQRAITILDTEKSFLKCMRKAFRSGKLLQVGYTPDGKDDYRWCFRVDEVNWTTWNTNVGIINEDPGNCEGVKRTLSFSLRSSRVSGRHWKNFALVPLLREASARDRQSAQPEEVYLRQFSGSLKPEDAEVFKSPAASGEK

With `O=C(NC1CCC2(CCCC2)CC1)c1ccc(-c2ccccc2)cc1` [Compound 14, N-(spiro[4.5]decan-8-yl)-[1,1′-biphenyl]-4-carboxamide] the inhibition at 0.003 µM (human TRPV1; [3]) was -9 ± 2%, the inhibition at 0.03 µM (human TRPV1; [3]) was -0.6 ± 5% and the “effect on hTRPV1-mediated responses (intrinsic and antagonist activity)” value (human TRPV1; at concentrations 13- to 25-fold higher than hTRPM8 IC50) was “do not affect”. The “selectivity for TRPM8 vs. TRPV1” value (human TRPV1; from FLIPR single-point assays) was 13 fold, the “hTRPV1 % Activation (n = 3)” value (human TRPV1; tested at 3 nM) was 1 ± 1% and the “hTRPV1 % Activation (n = 3)” value (human TRPV1; tested at 30 nM) was 1 ± 2%. For the same compound, the “% Remaining of Initial (n = 1), 0 min” value ([1]; 0 min) was 100%, the “% Remaining of Initial (n = 1), 10 min” value ([1]; 10 min) was 78% and the “% Remaining of Initial (n = 1), 20 min” value ([1]; 20 min) was 57%. For the same compound, the “% Remaining of Initial (n = 1), 30 min” value ([1]; 30 min) was 47%, the “% Remaining of Initial (n = 1), 60 min” value ([1]; 60 min) was 31% and the “time after administration at which attenuated cold allodynia is evident” value [2, 4] was 15 min. For the same compound, the “time after administration of maximum inhibition of cold allodynia” value [2, 4] was 30 min, the “effect on OXP effects at 60 minutes” value ([2]; 60 minutes after administration) was “significantly suppresses OXP effects” and the “effect on oxaliplatin-induced cold allodynia” value ([2]; C57/BL6 mice) was “able to attenuate oxaliplatin-induced cold allodynia in vivo”.
